Assay results: US9205179B2, “Broad-spectrum antimicrobial compositions based on combinations of taurolidine and protamine and medical devices containing such compositions” (Ethicon, Inc., priority 2011, dated 2015)

How the values were obtained:
[1] = test system: Staphylococcus aureus ACTT 6538; assay: In vitro bacteria attachment assay on coated mesh discs in SST medium; type: cell-based; details: serum containing media; same TU dosage alone or combined with PS
Procedure: (§1) Taurolidine was dissolved at 4% wt./vol. in a 70% acetone 30% water vol./vol. mixture. Protamine sulfate was dissolved at 10% wt./vol. in water under warming. 50 μl of the taurolidine (TU) solution and 20 μl of the protamine (PS) solution were applied to each mesh disk using a pipette and allowed to dry at 50° C. until the majority of the liquid was gone and then stored under vacuum. First the taurolidine solution was applied, and then immediately thereafter the protamine sulfate solution was applied. The in vitro bacteria attachment assay was developed for its utility of indicating biofilm prevention potential of prototype mesh. Since bacterial attachment to a surface is the first step of biofilm formation, a surface treatment that inhibits bacterial attachment would reduce the chance of subsequent biofilm formation. The assay was conducted in SST (Serum Saline TSB) medium to mimic in vivo and clinical conditions. The formulation of SST is Tryptic Soy Broth (TSB):serum:saline in the ratio of 1:2:7. Each test article was incubated in SST inoculated with Staphylococcus aureus ACTT 6538 or Escherichia coli ATCC 25922 at about 6 Log CFU/ml. […] Viable bacteria populations were measured by plate count on TSA (Tryptic Soy agar) medium contain neutralizing agents. […]

[2] = cited from earlier work
[3] = test system: Escherichia coli ATCC 25922; assay: In vitro bacteria attachment assay on coated mesh discs in SST medium; type: cell-based; details: serum containing media; same TU dosage alone or combined with PS
Procedure: as §1

Compound: O=S1(=O)CCN(CN2CCS(=O)(=O)NC2)CN1 [TU, bis(1,1-dioxoperhydro-1,2,4-thiadiazinyl-4)-methane]
- Inhibition of attachment by S. aureus to treated mesh surface [1]: less inhibition than the combination
- Cumulative dose shown to be safe and well tolerated ([2]; cumulative dose, up to and exceeding): exceeding 300 g
- Systemic dose shown to be safe and well tolerated ([2]; systemic dose): exceeding 40 g/day
- Inhibition of attachment by E. coli to treated mesh surface [3]: less inhibition than the combination
